# Results taken from article PMC11868331, “A Phase 1b study of the OxPhos inhibitor ME-344 with bevacizumab in refractory metastatic colorectal cancer” (Investigational New Drugs, 2024).
# Columns and labels:
# [1] = test system: patients with ovarian and small cell lung cancer; set-up: method as in PMID 28283779; conditions: ME-344 at 10 mg/kg in combination with topotecan; cited from earlier work
# [2] = test system: PyMT breast cancer and Lewis lung carcinoma models; set-up: method as in PMID 27292634; conditions: in combination with TKIs; cited from earlier work
# solid tumors = test system: solid tumors; set-up: method as in PMID 25411085; conditions: cited from earlier work
# [3] = ME-344 plasma pharmacokinetics, non-compartmental analysis; assay type: in vivo, human; conditions: for Cmax, Mean (%CV): ME-344 10 mg/kg 60-minute infusion
# Experimental: Serial blood samples for ME-344 pharmacokinetic analyses were collected 5 min after the end of ME-344 infusion and at 1, 2, 3, 6 and 24 h after the completion of infusion on days 1 and 15 of cycle 1, and ME-344 plasma concentrations were determined using validated analytical methods. ME-344 pharmacokinetic parameters were estimated using actual sampling times by non-compartmental analysis.
# [4] = test system: panel of human cancer cells; conditions: cells representative of most major organ systems; preclinical screening studies; cited from earlier work
# [5] = test system: early HER2-negative breast cancer; set-up: method as in PMID 31597662; conditions: mitochondrial on-target effect; cited from earlier work
compound,measurement,setting,value
Cc1c(O)ccc2c1OC[C@@H](c1ccc(O)cc1)[C@H]2c1ccc(O)cc1 [ME-344],tolerability,[1],well tolerated
same,tumor control,[2],synergistic tumor control
same,dose limiting toxicity,solid tumors; at higher doses than 10 mg/kg,peripheral neuropathy
same,recommended phase 2 dose,solid tumors; intravenously (IV) once weekly for 3 weeks in a 28-day cycle,10 mg/kg
same,"AUCinf, Mean (%CV)",[3]; Cycle 1 Day 1 (n = 17),23.0 (34%) µg×h/mL
same,"AUClast, Mean (%CV)",[3]; Cycle 1 Day 1 (n = 17),22.6 (34%) µg×h/mL
same,"Tmax, median (range)",[3]; Cycle 1 Day 1 (n = 17),1.08 [1.03 – 1.33] hours
same,"Cmax, Mean (%CV)",[3]; Cycle 1 Day 1 (n = 17),12.60 (42%) µg/mL
same,"AUCinf, Mean (%CV)",[3]; Cycle 1 Day 15 (n = 15),23.7 (38%) ^A µg×h/mL
same,"AUClast, Mean (%CV)",[3]; Cycle 1 Day 15 (n = 15),22.4 (35%) ^A µg×h/mL
same,"Half-life (terminal phase t1/2), Mean (%CV)",[3]; Cycle 1 Day 15 (n = 15),5.1 (38%) ^A h
same,"Tmax, median (range)",[3]; Cycle 1 Day 15 (n = 18),1.17 [1.03 – 2.23] hours
same,"Cmax, Mean (%CV)",[3]; Cycle 1 Day 15 (n = 18),11.83 (47%) µg/mL
same,pre-dose plasma concentrations,[3]; day 15,negligible
same,antiproliferative activity,[4],broad antiproliferative activity
same,succinate dehydrogenase and HIF1α staining,[5],decrease
